# From EP4603105A1, “PHARMACEUTICAL COMPOSITION CONTAINING CYCLIC COMPOUND HAVING SELECTIVE KRAS INHIBITORY EFFECT AGAINST HRAS AND NRAS” (CHUGAI SEIYAKU KABUSHIKI KAISHA, priority 2022, dated 2024)
# Tests used:
# [1] = molecular target: GDP-bound NRAS wild-type protein (Homo sapiens, UniProt P01111); assay: Binding to NRAS by surface plasmon resonance (SPR), KD and KD ratio to KRAS
# How it was run: (§1)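 Running buffer contained 10 µM GDP and 10 mM MgCl2 to keep RAS in the GDP state, with 4% DMSO at pH 7.4. Compounds were flowed at 100 µL/min in 75 s steps of rising concentration over captured biotin-Avi RAS at 30°C. Sensorgrams were fitted 1:1 for KD.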
# [2] = test system: human lung cancer strain NCI-H441; assay type: cell-based
# How it was run: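 Step one: dispense the test compound in serial DMSO dilutions. Step three: add the reagent and measure […].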
# HRAS wild-type protein = HRAS wild-type protein (Homo sapiens, UniProt P01112); assay: Binding to HRAS by surface plasmon resonance (SPR), KD and KD ratio to KRAS
# Sequence of HRAS wild-type protein (P01112 whole entry): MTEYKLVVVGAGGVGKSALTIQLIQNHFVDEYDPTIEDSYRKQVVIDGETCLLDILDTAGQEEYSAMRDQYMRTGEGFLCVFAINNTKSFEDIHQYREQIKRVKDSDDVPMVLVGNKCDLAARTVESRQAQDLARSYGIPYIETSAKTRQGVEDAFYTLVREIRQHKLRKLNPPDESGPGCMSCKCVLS
# How it was run: as §1
# [3] = ratio of KD for GDP-bound NRAS wild-type protein to KD for KRAS
# [4] = ratio of KD for HRAS wild-type protein to KD for KRAS
# [5] = ratio of KD value for GDP-bound NRAS wild-type protein to KD value for KRAS (SPR)
# [6] = ratio of KD value for HRAS wild-type protein to KD value for KRAS (SPR)
# [7] = ratio of the KD value with respect to GDP-bound NRAS wild-type protein to the KD value with respect to KRAS
# [8] = ratio of the KD value with respect to HRAS wild-type protein to the KD value with respect to KRAS
# Sequence of GDP-bound NRAS wild-type protein (P01111 whole entry): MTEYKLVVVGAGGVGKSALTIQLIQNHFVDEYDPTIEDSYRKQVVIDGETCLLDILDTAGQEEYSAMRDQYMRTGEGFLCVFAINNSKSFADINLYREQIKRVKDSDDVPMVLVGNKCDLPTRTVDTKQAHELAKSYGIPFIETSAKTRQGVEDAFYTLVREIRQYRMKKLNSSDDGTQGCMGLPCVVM
SMILES,IC50 [2] [nM],"NRAS /KRAS [1, 3]",HRAS /KRAS (HRAS wild-type protein; [4]),"NRAS /KRAS [1, 5]",HRAS /KRAS (HRAS wild-type protein; [6]),"NRAS /KRAS [1, 7]",HRAS /KRAS (HRAS wild-type protein; [8])
CCO[C@@H]1C[C@H]2C(=O)NC3(CCC3)C(=O)N(C)[C@@H](C3CCCC3)C(=O)N(C)[C@H](C(=O)N(C)C)CC(=O)N(C)[C@@H](COC)C(=O)N[C@@H]([C@@H](C)CC)C(=O)NCC(=O)N(C)[C@H]3CCCCCN(C3=O)[C@@H](Cc3ccc(C(F)(F)F)cc3)C(=O)N(C)CC(=O)N[C@@H](CCc3cc(F)c(C(F)(F)F)c(F)c3)C(=O)N2C1 [PP0859],22.4,B (a compound having 3 or more and less than 10 is denoted as B),B (a compound having 3 or more and less than 10 is denoted as B),,,,
CCO[C@@H]1C[C@H]2C(=O)NC3(CCC3)C(=O)N(C)[C@@H](C3CCCC3)C(=O)N(C)[C@H](C(=O)N(C)C)CC(=O)N(C)[C@@H](CC)C(=O)N[C@@H]([C@@H](C)CC)C(=O)N(C)CC(=O)N(C)[C@H]3CCCCN(C3=O)[C@@H](Cc3ccc(C(F)(F)F)cc3)C(=O)N(C)CC(=O)N[C@@H](CCc3ccc(C(F)(F)F)c(OC)c3)C(=O)N2C1 [PP0884],6.2,C (A compound having a KD ratio of 0.1 or more and less than 3 is denoted as C),C (A compound having a KD ratio of 0.1 or more and less than 3 is denoted as C),,,,
CCO[C@@H]1C[C@H]2C(=O)NC3(CCC3)C(=O)N(C)[C@@H](C3CCCC3)C(=O)N(C)[C@@H](C(C)C)CC(=O)N(C)[C@@H](CC3CC3)C(=O)N[C@@H]([C@@H](C)CC)C(=O)N(C)CC(=O)N(C)[C@H]3C/C=C\CCN(C3=O)[C@@H](Cc3ccc(C(F)(F)F)cc3)C(=O)N(C)CC(=O)N[C@@H](CCc3cc(F)c(C(F)(F)F)c(F)c3)C(=O)N2C1 [PP1596],18.1,,,A (a compound having 10 or more and less than 20 is denoted as A),B (a compound having 3 or more and less than 10 is denoted as B),,
CCO[C@@H]1C[C@H]2C(=O)NC3(CCC3)C(=O)N(C)[C@@H](C(CC)CC)C(=O)N(C)[C@H](C(=O)N3CCOCC3)CC(=O)N(C)[C@@H](CC3CC3)C(=O)N[C@@H]([C@@H](C)CC)C(=O)N(C)CC(=O)N(C)[C@H]3C/C=C\CCN(C3=O)[C@@H](Cc3ccc(F)cc3C)C(=O)N(C)CC(=O)N[C@@H](CCc3cc(F)c(C(F)(F)F)c(F)c3)C(=O)N2C1 [PP1526],118,,,A (a compound having 10 or more and less than 20 is denoted as A),A (a compound having 10 or more and less than 20 is denoted as A),,

# More lines, main results first:
IC50 [2] [nM],SMILES,"NRAS /KRAS [1, 3]",HRAS /KRAS (HRAS wild-type protein; [4]),"NRAS /KRAS [1, 5]",HRAS /KRAS (HRAS wild-type protein; [6]),"NRAS /KRAS [1, 7]",HRAS /KRAS (HRAS wild-type protein; [8])
3.8,CCO[C@@H]1C[C@H]2C(=O)NC3(CC(C)(C)C3)C(=O)N(C)[C@@H](C3CCCC3)C(=O)N(C)[C@H](C(=O)N(C)C)CC(=O)N(C)[C@@H](CC(F)(F)F)C(=O)N[C@@H]([C@@H](C)CC)C(=O)N(C)CC(=O)N(C)[C@H]3C/C=C\CCN(C3=O)[C@@H](Cc3ccc(C(F)(F)F)cc3)C(=O)N(C)CC(=O)N[C@@H](CCc3ccc(C(F)(F)F)c(Cl)c3)C(=O)N2C1 [PP2833],A (a compound having 10 or more and less than 20 is denoted as A),A (a compound having 10 or more and less than 20 is denoted as A),,,,
15.7,CCO[C@@H]1C[C@H]2C(=O)NC3(CC(C)(C)C3)C(=O)N(C)[C@@H](C(CC)CC)C(=O)N(C)[C@H](C(=O)N(C)C)CC(=O)N(C)[C@@H](CC3CCC3)C(=O)N[C@@H]([C@@H](C)CC)C(=O)N(C)CC(=O)N(C)[C@H]3C/C=C\CCN(C3=O)[C@@H](Cc3ccc(C(F)(F)F)cc3)C(=O)N(C)CC(=O)N[C@@H](CCc3ccc(C(F)(F)F)c(Cl)c3)C(=O)N2C1 [PP2138],,,,,A (a compound having 10 or more and less than 20 is denoted as A),A (a compound having 10 or more and less than 20 is denoted as A)
5.4,CCC[C@H]1C(=O)N[C@@H]([C@@H](C)CC)C(=O)N(C)CC(=O)N(C)[C@H]2C/C=C\CCN(C2=O)[C@@H](Cc2ccc(C(F)(F)F)cc2)C(=O)N(C)CC(=O)N[C@@H](CCc2ccc(C(F)(F)F)c(OC)c2)C(=O)N2C[C@H](OCC)C[C@H]2C(=O)NC2(CC(C)(C)C2)C(=O)N(C)[C@@H](C(CC)CC)C(=O)N(C)[C@H](C(=O)N(C)C)CC(=O)N1C [PP2160],,,,,A (a compound having 10 or more and less than 20 is denoted as A),A (a compound having 10 or more and less than 20 is denoted as A)
